The record followed here is ChEMBL document CHEMBL1150637, “African elephant sesquiterpenes. II. Identification and synthesis of new derivatives of 2,3-dihydrofarnesol” (J Nat Prod, 2002).

The subject of this test is Mycobacterium tuberculosis. As to the kind of experiment: Antimycobacterial activity against Mycobacterium tuberculosis by radiorespirometric bioassay. The class given is functional, organism-based.

Calls of active or inactive are those of the source. The rule behind the calls is not given here.

As to `CC(C)=CCC/C(C)=C/CC/C(C)=C/CO`, the result was Active.
